Reference: PubChem BioAssay AID330 (DTP/NCI, 2004)
Several values for one entry are separate records, joined by “and”; a condition that tells them apart may be missing. Identical values can stand only once. Toxic doses and inconclusive results are not listed.

Tested on: P388 leukemia ip, CD2F1 mice, survival T/C
Test: NCI In Vivo Anticancer Drug Screen. Data for tumor model P388 Leukemia (intraperitoneal) in CD2F1 (CDF1) mice
Conditions: endpoint: median survival time, higher = longer survival
Procedure, shortened: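 Mice carrying the transplanted tumor received test compound or vehicle. Survival was recorded in each group, and the value is the treated-group measurement divided by that of the vehicle-treated control group.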

[1] = dose: 25.0 mg/kg/injection, schedule: Q01DX009 (ip), vehicle: saline
[2] = dose: 50.0 mg/kg/injection, schedule: Q01DX009 (ip), vehicle: saline with Tween-80
[3] = dose: 50.0 mg/kg/injection, schedule: Q01DX005 (ip), vehicle: saline
[4] = dose: 100.0 mg/kg/injection, schedule: Q01DX005 (ip), vehicle: saline
[5] = dose: 200.0 mg/kg/injection, schedule: Q01DX005 (ip), vehicle: saline
[6] = dose: 50.0 mg/kg/injection, schedule: Q01DX009 (ip), vehicle: Klucel (hydroxypropylcellulose) (HPC)
[7] = dose: 200.0 mg/kg/injection, schedule: Q01DX009 (ip), vehicle: Klucel (hydroxypropylcellulose) (HPC)

For `O=S(=O)(O)c1c(O)ccc2nc3ccccc3nc12`, the T/C (dose: 12.5 mg/kg/injection, schedule: Q01DX009 (ip), vehicle: saline) was 99 % of control and 97 % of control, the T/C [1] was 98 % of control and 96 % of control and the T/C (dose: 50.0 mg/kg/injection, schedule: Q01DX009 (ip), vehicle: saline) was 103 % of control and 104 % of control and 106 % of control. For the same compound, the T/C (dose: 100.0 mg/kg/injection, schedule: Q01DX009 (ip), vehicle: saline) was 98 % of control and the T/C (dose: 200.0 mg/kg/injection, schedule: Q01DX009 (ip), vehicle: saline) was 96 % of control.

With `Cc1ccc(C)c2c(Nc3ccc4c(c3)OCO4)c(C(=O)O)cnc12` the T/C (dose: 60.0 mg/kg/injection, schedule: Q01DX005 (ip), vehicle: Klucel + Tween-80) was 95 % of control and the T/C (dose: 120.0 mg/kg/injection, schedule: Q01DX005 (ip), vehicle: Klucel + Tween-80) was 93 % of control.

`CCN(CC)c1csc2c3ccccc3nc(C)[n+]12` was tested, and the T/C (dose: 100.0 mg/kg/injection, schedule: Q04DX003 (ip), vehicle: saline + Tween-80 + alcohol) was 104 % of control, the T/C (dose: 200.0 mg/kg/injection, schedule: Q04DX003 (ip), vehicle: saline + Tween-80 + alcohol) was 94 % of control and the T/C (dose: 400.0 mg/kg/injection, schedule: Q04DX003 (ip), vehicle: saline + Tween-80 + alcohol) was 105 % of control.

In the case of `CCCCCCCCC#CC(=O)O`, the T/C [2] is reported as 94 % of control, the T/C (dose: 100.0 mg/kg/injection, schedule: Q01DX009 (ip), vehicle: saline with Tween-80) is reported as 95 % of control and the T/C (dose: 200.0 mg/kg/injection, schedule: Q01DX009 (ip), vehicle: saline with Tween-80) is reported as 86 % of control.

With `COc1cc(N(CCCl)CCCl)c(OC)cc1C=Nc1ccccc1C(=O)O` the T/C (dose: 3.12 mg/kg/injection, schedule: Q01DX009 (ip), vehicle: suspension in saline) was 114 % of control and the T/C [1] was 182 % of control.

`CCCCCCC[n+]1cccc(C(=O)N2CCOCC2)c1` was tested, and the T/C (dose: 12.5 mg/kg/injection, schedule: Q01DX009 (ip), vehicle: saline with Tween-80) was 104 % of control, the T/C (dose: 25.0 mg/kg/injection, schedule: Q01DX009 (ip), vehicle: saline with Tween-80) was 98 % of control and the T/C [2] was 100 % of control.

With `CCCNC(=O)N1C2C3CCC(C)(OC3(C)C)C21` (centres undefined) the T/C [3] was 106 % of control, the T/C [4] was 100 % of control and the T/C [5] was 98 % of control.

`O=C1C2C3C=CC(C3)C2C(=O)N1c1ccc2nc(SC3C=CCCC3)sc2c1` (centres undefined) was tested, and the T/C (dose: 12.5 mg/kg/injection, schedule: Q01DX009 (ip), vehicle: Klucel (hydroxypropylcellulose) (HPC)) was 100 % of control, the T/C (dose: 25.0 mg/kg/injection, schedule: Q01DX009 (ip), vehicle: Klucel (hydroxypropylcellulose) (HPC)) was 106 % of control and the T/C [6] was 99 % of control and 97 % of control. For the same compound, the T/C [7] was 88 % of control.

With `O=C1CSC(=S)N1c1cccc(F)c1` the T/C (dose: 50.0 mg/kg/injection, schedule: Q01DX009 (ip), vehicle: suspension in saline) was 108 % of control, the T/C (dose: 100.0 mg/kg/injection, schedule: Q01DX009 (ip), vehicle: suspension in saline) was 100 % of control and the T/C (dose: 200.0 mg/kg/injection, schedule: Q01DX009 (ip), vehicle: suspension in saline) was 100 % of control.

For `N#C/C(N)=C(\C#N)N=c1c(-c2ccccc2)c1-c1ccccc1`, the T/C (dose: 50.0 mg/kg/injection, schedule: Q01DX005 (ip), vehicle: Klucel (hydroxypropylcellulose) (HPC)) was 102 % of control and 103 % of control, the T/C (dose: 100.0 mg/kg/injection, schedule: Q01DX005 (ip), vehicle: Klucel (hydroxypropylcellulose) (HPC)) was 103 % of control and 113 % of control and the T/C (dose: 200.0 mg/kg/injection, schedule: Q01DX005 (ip), vehicle: Klucel (hydroxypropylcellulose) (HPC)) was 109 % of control and 122 % of control.

For `CCCCCCC1C(C#N)C(=O)NC(=O)C1C#N` (centres undefined), the T/C [6] was 96 % of control, the T/C (dose: 100.0 mg/kg/injection, schedule: Q01DX009 (ip), vehicle: Klucel (hydroxypropylcellulose) (HPC)) was 95 % of control and the T/C [7] was 93 % of control.

For `O=C(CCSCCC(=O)N/N=C/C(O)C(O)C(O)C(O)CO)N/N=C/C(O)C(O)C(O)C(O)CO` (centres undefined), the T/C (dose: 50.0 mg/kg/injection, schedule: Q01DX005 (ip), vehicle: saline with Tween-80) was 99 % of control, the T/C [3] was 97 % of control and the T/C (dose: 100.0 mg/kg/injection, schedule: Q01DX005 (ip), vehicle: saline with Tween-80) was 98 % of control. For the same compound, the T/C [4] was 98 % of control, the T/C (dose: 200.0 mg/kg/injection, schedule: Q01DX005 (ip), vehicle: saline with Tween-80) was 96 % of control and the T/C [5] was 99 % of control.

`COc1onc(C)c1CC(=O)O` was tested, and the T/C (dose: 18.75 mg/kg/injection, schedule: Q01DX005 (ip), vehicle: saline with Tween-80) was 97 % of control, the T/C (dose: 37.5 mg/kg/injection, schedule: Q01DX005 (ip), vehicle: saline with Tween-80) was 101 % of control and the T/C (dose: 75.0 mg/kg/injection, schedule: Q01DX005 (ip), vehicle: saline with Tween-80) was 95 % of control. The T/C (dose: 150.0 mg/kg/injection, schedule: Q01DX005 (ip), vehicle: saline with Tween-80) was 99 % of control.
